Measurements taken from ChEMBL document CHEMBL1151757, “Synthesis, radiosynthesis, and biological evaluation of fluorine-18-labeled 2beta-carbo(fluoroalkoxy)-3beta-(3'-((Z)-2-haloethenyl)phenyl)nortropanes: candidate radioligands for in vivo imaging of the serotonin transporter with positron emission tomography” (J Med Chem, 2008).

Experiments:
Midbrain [1] = test: Drug uptake in anesthetized cynomolgus monkey brain midbrain after 205 mins postinjection; type: ADME, organism-based, Macaca fascicularis; conditions: in vivo
[2] = Drug uptake in anesthetized cynomolgus monkey brain occipital lobe after 95 mins postinjection; type: ADME, organism-based, Macaca fascicularis; conditions: in vivo
Putamen [3] = test: Drug uptake in anesthetized cynomolgus monkey brain putamen after 45 mins postinjection; type: ADME, organism-based, Macaca fascicularis; set-up: unit not given here; conditions: in vivo, 0.75 h
Thalamus [4] = test: Drug uptake in anesthetized cynomolgus monkey brain thalamus after 185 mins postinjection; type: ADME, organism-based, Macaca fascicularis; conditions: in vivo
[5] = Ratio of drug uptake in medulla to cerebellum in anesthetized cynomolgus monkey after 9.5 mins postinjection; type: ADME, organism-based, Macaca fascicularis; conditions: in vivo
Medulla [6] = test: Drug uptake in anesthetized cynomolgus monkey brain medulla after 85 mins postinjection; type: ADME, organism-based, Macaca fascicularis; conditions: in vivo
[7] = Ratio of drug uptake in frontal lobe to cerebellum in anesthetized cynomolgus monkey after 3.5 mins postinjection; type: ADME, organism-based, Macaca fascicularis; conditions: in vivo
Putamen [8] = test: Drug uptake in anesthetized cynomolgus monkey brain putamen after 35 mins postinjection; type: ADME, organism-based, Macaca fascicularis; set-up: unit not given here; conditions: in vivo
[9] = Drug uptake in anesthetized cynomolgus monkey brain frontal lobe after 155 mins postinjection; type: ADME, organism-based, Macaca fascicularis; conditions: in vivo
[10] = Ratio of drug uptake in occipital lobe to cerebellum in anesthetized cynomolgus monkey after 95 mins postinjection; type: ADME, organism-based, Macaca fascicularis; conditions: in vivo
[11] = Drug uptake in anesthetized cynomolgus monkey brain occipital lobe after 195 mins postinjection; type: ADME, organism-based, Macaca fascicularis; conditions: in vivo, 3.25 h
[12] = Ratio of drug uptake in putamen to cerebellum in anesthetized cynomolgus monkey after 65 mins postinjection; type: ADME, organism-based, Macaca fascicularis; conditions: in vivo
[13] = Drug uptake in anesthetized cynomolgus monkey brain occipital lobe after 18.5 mins postinjection; type: ADME, organism-based, Macaca fascicularis; conditions: in vivo
[14] = Drug uptake in anesthetized cynomolgus monkey brain cerebellum after 65 mins postinjection; type: ADME, organism-based, Macaca fascicularis; conditions: in vivo
[15] = Drug uptake in anesthetized cynomolgus monkey brain frontal lobe after 55 mins postinjection; type: ADME, organism-based, Macaca fascicularis; conditions: in vivo
Caudate [16] = test: Drug uptake in anesthetized cynomolgus monkey brain caudate after 165 mins postinjection; type: ADME, organism-based, Macaca fascicularis, Caudate nucleus; conditions: in vivo, 2.75 h
Midbrain [17] = test: Drug uptake in anesthetized cynomolgus monkey brain midbrain after 225 mins postinjection; type: ADME, organism-based, Macaca fascicularis; conditions: in vivo, 3.75 h
Putamen [18] = test: Drug uptake in anesthetized cynomolgus monkey brain putamen after 145 mins postinjection; type: ADME, organism-based, Macaca fascicularis; conditions: in vivo
Thalamus [19] = test: Drug uptake in anesthetized cynomolgus monkey brain thalamus after 15.5 mins postinjection; type: ADME, organism-based, Macaca fascicularis; set-up: unit not given here; conditions: in vivo
[20] = Ratio of drug uptake in caudate to cerebellum in anesthetized cynomolgus monkey after 135 mins postinjection; type: ADME, organism-based, Macaca fascicularis; conditions: in vivo, 2.25 h
Thalamus [21] = test: Drug uptake in anesthetized cynomolgus monkey brain thalamus after 3.5 mins postinjection; type: ADME, organism-based, Macaca fascicularis; set-up: unit not given here; conditions: in vivo
[22] = Ratio of drug uptake in midbrain to cerebellum in anesthetized cynomolgus monkey after 18.5 mins postinjection; type: ADME, organism-based, Macaca fascicularis; conditions: in vivo
Pons [23] = test: Drug uptake in anesthetized cynomolgus monkey brain pons after 35 mins postinjection; type: ADME, organism-based, Macaca fascicularis; conditions: in vivo
Putamen [24] = test: Drug uptake in anesthetized cynomolgus monkey brain putamen after 85 mins postinjection; type: ADME, organism-based, Macaca fascicularis; set-up: unit not given here; conditions: in vivo
Putamen [25] = test: Drug uptake in anesthetized cynomolgus monkey brain putamen after 1.5 mins postinjection; type: ADME, organism-based, Macaca fascicularis; conditions: in vivo, 0.025 h
[26] = Ratio of drug uptake in medulla to cerebellum in anesthetized cynomolgus monkey after 85 mins postinjection; type: ADME, organism-based, Macaca fascicularis; conditions: in vivo
Midbrain [27] = test: Drug uptake in anesthetized cynomolgus monkey brain midbrain after 4.5 mins postinjection; type: ADME, organism-based, Macaca fascicularis; set-up: unit not given here; conditions: in vivo, 0.075 h
[28] = Ratio of drug uptake in frontal lobe to cerebellum in anesthetized cynomolgus monkey after 95 mins postinjection; type: ADME, organism-based, Macaca fascicularis; conditions: in vivo
Medulla [29] = test: Drug uptake in anesthetized cynomolgus monkey brain medulla after 215 mins postinjection; type: ADME, organism-based, Macaca fascicularis; conditions: in vivo
[30] = Ratio of drug uptake in midbrain to cerebellum in anesthetized cynomolgus monkey after 215 mins postinjection; type: ADME, organism-based, Macaca fascicularis; conditions: in vivo
Midbrain [31] = test: Drug uptake in anesthetized cynomolgus monkey brain midbrain after 45 mins postinjection; type: ADME, organism-based, Macaca fascicularis; set-up: unit not given here; conditions: in vivo, 0.75 h
Caudate [32] = test: Drug uptake in anesthetized cynomolgus monkey brain caudate after 1.5 mins postinjection; type: ADME, organism-based, Macaca fascicularis, Caudate nucleus; conditions: in vivo, 0.025 h
[33] = Ratio of drug uptake in medulla to cerebellum in anesthetized cynomolgus monkey after 195 mins postinjection; type: ADME, organism-based, Macaca fascicularis; conditions: in vivo, 3.25 h
Medulla [34] = test: Drug uptake in anesthetized cynomolgus monkey brain medulla after 235 mins postinjection; type: ADME, organism-based, Macaca fascicularis; conditions: in vivo
Midbrain [35] = test: Drug uptake in anesthetized cynomolgus monkey brain midbrain after 105 mins postinjection; type: ADME, organism-based, Macaca fascicularis; set-up: unit not given here; conditions: in vivo, 1.75 h
[36] = Ratio of drug uptake in midbrain to cerebellum in anesthetized cynomolgus monkey after 22.5 mins postinjection; type: ADME, organism-based, Macaca fascicularis; conditions: in vivo, 0.375 h
[37] = Drug uptake in anesthetized cynomolgus monkey brain cerebellum after 205 mins postinjection; type: ADME, organism-based, Macaca fascicularis; conditions: in vivo
[38] = Ratio of drug uptake in caudate to cerebellum in anesthetized cynomolgus monkey after 18.5 mins postinjection; type: ADME, organism-based, Macaca fascicularis; conditions: in vivo
Putamen [39] = test: Drug uptake in anesthetized cynomolgus monkey brain putamen after 9.5 mins postinjection; type: ADME, organism-based, Macaca fascicularis; set-up: unit not given here; conditions: in vivo
Putamen [40] = test: Drug uptake in anesthetized cynomolgus monkey brain putamen after 3.5 mins postinjection; type: ADME, organism-based, Macaca fascicularis; conditions: in vivo
[41] = Ratio of drug uptake in putamen to cerebellum in anesthetized cynomolgus monkey after 6.5 mins postinjection; type: ADME, organism-based, Macaca fascicularis; conditions: in vivo
Thalamus [42] = test: Drug uptake in anesthetized cynomolgus monkey brain thalamus after 27.5 mins postinjection; type: ADME, organism-based, Macaca fascicularis; set-up: unit not given here; conditions: in vivo
Midbrain [43] = test: Drug uptake in anesthetized cynomolgus monkey brain midbrain after 115 mins postinjection; type: ADME, organism-based, Macaca fascicularis; set-up: unit not given here; conditions: in vivo
[44] = Drug uptake in anesthetized cynomolgus monkey brain occipital lobe after 65 mins postinjection; type: ADME, organism-based, Macaca fascicularis; conditions: in vivo
Putamen [45] = test: Drug uptake in anesthetized cynomolgus monkey brain putamen after 115 mins postinjection; type: ADME, organism-based, Macaca fascicularis; set-up: unit not given here; conditions: in vivo
[46] = Drug uptake in anesthetized cynomolgus monkey brain occipital lobe after 4.5 mins postinjection; type: ADME, organism-based, Macaca fascicularis; conditions: in vivo, 0.075 h
[47] = Drug uptake in anesthetized cynomolgus monkey brain frontal lobe after 2.5 mins postinjection; type: ADME, organism-based, Macaca fascicularis; conditions: in vivo
[48] = Ratio of drug uptake in putamen to cerebellum in anesthetized cynomolgus monkey after 3.5 mins postinjection; type: ADME, organism-based, Macaca fascicularis; conditions: in vivo
Medulla [49] = test: Drug uptake in anesthetized cynomolgus monkey brain medulla after 135 mins postinjection; type: ADME, organism-based, Macaca fascicularis; conditions: in vivo, 2.25 h
[50] = Drug uptake in anesthetized cynomolgus monkey brain cerebellum after 195 mins postinjection; type: ADME, organism-based, Macaca fascicularis; conditions: in vivo, 3.25 h
[51] = Drug uptake in anesthetized cynomolgus monkey brain frontal lobe after 3.5 mins postinjection; type: ADME, organism-based, Macaca fascicularis; conditions: in vivo
[52] = Drug uptake in anesthetized cynomolgus monkey brain frontal lobe after 65 mins postinjection; type: ADME, organism-based, Macaca fascicularis; conditions: in vivo
Putamen [53] = test: Drug uptake in anesthetized cynomolgus monkey brain putamen after 185 mins postinjection; type: ADME, organism-based, Macaca fascicularis; conditions: in vivo
[54] = Drug uptake in anesthetized cynomolgus monkey brain cerebellum after 115 mins postinjection; type: ADME, organism-based, Macaca fascicularis; conditions: in vivo
Caudate [55] = test: Drug uptake in anesthetized cynomolgus monkey brain caudate after 15.5 mins postinjection; type: ADME, organism-based, Macaca fascicularis, Caudate nucleus; conditions: in vivo
Midbrain [56] = test: Drug uptake in anesthetized cynomolgus monkey brain midbrain after 2.5 mins postinjection; type: ADME, organism-based, Macaca fascicularis; set-up: unit not given here; conditions: in vivo
Pons [57] = test: Drug uptake in anesthetized cynomolgus monkey brain pons after 9.5 mins postinjection; type: ADME, organism-based, Macaca fascicularis; conditions: in vivo
[58] = Ratio of drug uptake in putamen to cerebellum in anesthetized cynomolgus monkey after 35 mins postinjection; type: ADME, organism-based, Macaca fascicularis; conditions: in vivo
[59] = Drug uptake in anesthetized cynomolgus monkey brain occipital lobe after 1.5 mins postinjection; type: ADME, organism-based, Macaca fascicularis; conditions: in vivo, 0.025 h
[60] = Ratio of drug uptake in thalamus to cerebellum in anesthetized cynomolgus monkey after 115 mins postinjection; type: ADME, organism-based, Macaca fascicularis; conditions: in vivo
Caudate [61] = test: Drug uptake in anesthetized cynomolgus monkey brain caudate after 3.5 mins postinjection; type: ADME, organism-based, Macaca fascicularis, Caudate nucleus; conditions: in vivo
[62] = Ratio of drug uptake in medulla to cerebellum in anesthetized cynomolgus monkey after 1.5 mins postinjection; type: ADME, organism-based, Macaca fascicularis; conditions: in vivo, 0.025 h
[63] = Drug uptake in anesthetized cynomolgus monkey brain frontal lobe after 145 mins postinjection; type: ADME, organism-based, Macaca fascicularis; conditions: in vivo
[64] = Ratio of drug uptake in midbrain to cerebellum in anesthetized cynomolgus monkey after 9.5 mins postinjection; type: ADME, organism-based, Macaca fascicularis; conditions: in vivo
[65] = Drug uptake in anesthetized cynomolgus monkey brain cerebellum after 12.5 mins postinjection; type: ADME, organism-based, Macaca fascicularis; conditions: in vivo
[66] = Ratio of drug uptake in thalamus to cerebellum in anesthetized cynomolgus monkey after 155 mins postinjection; type: ADME, organism-based, Macaca fascicularis; conditions: in vivo
Caudate [67] = test: Drug uptake in anesthetized cynomolgus monkey brain caudate after 235 mins postinjection; type: ADME, organism-based, Macaca fascicularis, Caudate nucleus; conditions: in vivo

O=C(OCCC[18F])C1C2CCC(CC1c1cccc(/C=C\I)c1)N2 (configuration not stated)
Drug uptake (Midbrain [1]): 3.86
Drug uptake [2]: 3.35
Drug uptake (Putamen [3]): 5.05
Drug uptake (Thalamus [4]): 3.29
Ratio [5]: 0.9
Drug uptake (Medulla [6]): 4.79
Ratio [7]: 0.4
Drug uptake (Putamen [8]): 4.99
Drug uptake [9]: 2.33
Ratio [10]: 1
Drug uptake [11]: 2.34
Ratio [12]: 1.2
Drug uptake [13]: 3.85
Drug uptake [14]: 4.08
Drug uptake [15]: 2.82
Drug uptake (Caudate [16]): 3.04
Drug uptake (Midbrain [17]): 3.76
Drug uptake (Putamen [18]): 3.91
Drug uptake (Thalamus [19]): 4.11
Ratio [20]: 1.3
Drug uptake (Thalamus [21]): 1.44
Ratio [22]: 1
Drug uptake (Pons [23]): 4.25
Drug uptake (Putamen [24]): 4.82
Drug uptake (Putamen [25]): 0.27
Ratio [26]: 1.3
Drug uptake (Midbrain [27]): 2.42
Ratio [28]: 0.8
Drug uptake (Medulla [29]): 3.66
Ratio [30]: 1.8
Drug uptake (Midbrain [31]): 5.02
Drug uptake (Caudate [32]): 0.16
Ratio [33]: 1.7
Drug uptake (Medulla [34]): 3.15
Drug uptake (Midbrain [35]): 4.82
Ratio [36]: 1
Drug uptake [37]: 1.91
Ratio [38]: 0.7
Drug uptake (Putamen [39]): 3.75
Drug uptake (Putamen [40]): 1.59
Ratio [41]: 0.8
Drug uptake (Thalamus [42]): 4.66
Drug uptake (Midbrain [43]): 4.76
Drug uptake [44]: 3.86
Drug uptake (Putamen [45]): 4.44
Drug uptake [46]: 2.06
Drug uptake [47]: 0.5
Ratio [48]: 0.8
Drug uptake (Medulla [49]): 4.5
Drug uptake [50]: 2.16
Drug uptake [51]: 0.83
Drug uptake [52]: 2.77
Drug uptake (Putamen [53]): 3.51
Drug uptake [54]: 3.1
Drug uptake (Caudate [55]): 3.34
Drug uptake (Midbrain [56]): 0.98
Drug uptake (Pons [57]): 3.47
Ratio [58]: 1.1
Drug uptake [59]: 0.19
Ratio [60]: 1.4
Drug uptake (Caudate [61]): 1.15
Ratio [62]: 1.3
Drug uptake [63]: 2.29
Ratio [64]: 0.9
Drug uptake [65]: 4.52
Ratio [66]: 1.6
Drug uptake (Caudate [67]): 2.41
